# Like-named read-outs stand apart in the source and are kept apart here.
# Assays:
# [1] = system: rapid-growing mycobacteria (RGM) isolates; assay: MIC (CLSI broth dilution), all RGM isolates; assay type: cell-based, nontuberculous mycobacteria; conditions: all 50 RGM isolates
# [2] = system: M. abscessus complex; assay: MIC (CLSI broth dilution), RGM isolates; assay type: cell-based
# [3] = system: M. chelonae; assay: MIC (CLSI broth dilution), RGM isolates; assay type: cell-based
# [4] = system: M. fortuitum group; assay: MIC (CLSI broth dilution), RGM isolates; assay type: cell-based
# [5] = system: M. immunogenum group; assay: MIC (CLSI broth dilution), RGM isolates; assay type: cell-based; conditions: M. immunogenum
# [6] = system: M. mucogenium group; assay: MIC (CLSI broth dilution), RGM isolates; assay type: cell-based
# [7] = system: M. smegmatis group; assay: MIC (CLSI broth dilution), RGM isolates; assay type: cell-based
# [8] = system: M. arupense; assay: MIC (CLSI broth dilution), slow-growing NTM isolates; assay type: cell-based; conditions: isolate 11, Other; read-out: MIC
# [9] = system: M. simiae; assay: as above; assay type: cell-based; conditions: read-out: MIC
smiles,measurement,setting,value
"CO[C@@]1(NC(=O)Cc2cccs2)C(=O)N2C(C(=O)O)=C(COC(N)=O)CS[C@@H]21 [FOX, cefoxitin]",MIC50,[1]; read-out: MIC50,32 µg/mL
same,MIC90,[1]; read-out: MIC90,> 64 µg/mL
same,MIC,"[2]; Mycobacteroides abscessus, isolate 1, M. abscessus complex, erm gene type MAB30, read-out: MIC",32 µg/mL
same,MIC,"[2]; Mycobacteroides abscessus, isolate 2, M. abscessus complex, erm gene type MAB30, read-out: MIC",32 µg/mL
same,MIC,"[2]; Mycobacteroides abscessus, isolate 3, M. abscessus complex, erm gene type MAB30, read-out: MIC",32 µg/mL
same,MIC,"[2]; Mycobacteroides abscessus, isolate 4, M. abscessus complex, erm gene type massiliense, read-out: MIC",32 µg/mL
same,MIC,"[2]; Mycobacteroides abscessus, isolate 5, M. abscessus complex, erm gene type massiliense/subsp. abs hybrid, read-out: MIC",32 µg/mL
same,MIC,"[2]; Mycobacteroides abscessus, isolate 6, M. abscessus complex, erm gene type Type 1 abscessus, read-out: MIC",32 µg/mL
same,MIC,"[2]; Mycobacteroides abscessus, isolate 7, M. abscessus complex, erm gene type Type 1 abscessus, read-out: MIC",32 µg/mL
same,MIC,"[2]; Mycobacteroides abscessus, isolate 8, M. abscessus complex, erm gene type Type 1 abscessus, read-out: MIC",32 µg/mL
same,MIC,"[2]; Mycobacteroides abscessus, isolate 9, M. abscessus complex, erm gene type Type 1 abscessus, read-out: MIC",32 µg/mL
same,MIC,"[2]; Mycobacteroides abscessus, isolate 10, M. abscessus complex, erm gene type Type 1 abscessus, read-out: MIC",32 µg/mL
same,MIC,"[2]; Mycobacteroides abscessus, isolate 11, M. abscessus complex, erm gene type Type 6 abscessus, read-out: MIC",32 µg/mL
same,MIC,"[2]; Mycobacteroides abscessus, isolate 12, M. abscessus complex, erm gene type Type 6 abscessus, read-out: MIC",32 µg/mL
same,MIC,"[2]; Mycobacteroides abscessus, isolate 13, M. abscessus complex, erm gene type Type 6 abscessus, read-out: MIC",32 µg/mL
same,MIC,"[2]; Mycobacteroides abscessus, isolate 14, M. abscessus complex, erm gene type Type 6 abscessus, read-out: MIC",64 µg/mL
same,MIC,"[2]; Mycobacteroides abscessus, isolate 15, M. abscessus complex, erm gene type Type 7 abscessus, read-out: MIC",32 µg/mL
same,MIC,"[2]; Mycobacteroides abscessus, isolate 16, M. abscessus complex, erm gene type Type 7 abscessus, read-out: MIC",32 µg/mL
same,MIC,"[2]; Mycobacteroides abscessus, isolate 17, M. abscessus complex, erm gene type Type 8 abscessus, read-out: MIC",32 µg/mL
same,MIC,"[3]; Mycobacteroides chelonae, isolate 18, M. chelonae, read-out: MIC",> 64 µg/mL
same,MIC,"[3]; Mycobacteroides chelonae, isolate 19, M. chelonae, read-out: MIC",> 64 µg/mL
same,MIC,"[3]; Mycobacteroides chelonae, isolate 20, M. chelonae, read-out: MIC",> 64 µg/mL
same,MIC,"[3]; Mycobacteroides chelonae, isolate 21, M. chelonae, read-out: MIC",> 64 µg/mL
same,MIC,"[3]; Mycobacteroides chelonae, isolate 22, M. chelonae, read-out: MIC",> 64 µg/mL
same,MIC,"[4]; Mycolicibacterium fortuitum, isolate 23, M. fortuitum group, M. fortuitum, read-out: MIC",32 µg/mL
same,MIC,"[4]; Mycolicibacterium fortuitum, isolate 24, M. fortuitum group, M. fortuitum, read-out: MIC",> 64 µg/mL
same,MIC,"[4]; Mycolicibacterium fortuitum, isolate 25, M. fortuitum group, M. fortuitum, read-out: MIC",32 µg/mL
same,MIC,"[4]; Mycolicibacterium fortuitum, isolate 26, M. fortuitum group, M. porcinum, read-out: MIC",32 µg/mL
same,MIC,"[4]; Mycolicibacterium fortuitum, isolate 27, M. fortuitum group, M. porcinum, read-out: MIC",32 µg/mL
same,MIC,"[4]; Mycolicibacterium fortuitum, isolate 28, M. fortuitum group, M. porcinum/M. boenickei, read-out: MIC",32 µg/mL
same,MIC,"[4]; Mycolicibacterium fortuitum, isolate 29, M. fortuitum group, M. porcinum/M. boenickei, read-out: MIC",32 µg/mL
same,MIC,"[4]; Mycolicibacterium fortuitum, isolate 30, M. fortuitum group, M. porcinum/M. boenickei, read-out: MIC",≤ 16 µg/mL
same,MIC,"[4]; Mycolicibacterium fortuitum, isolate 31, M. fortuitum group, M. senegalense, read-out: MIC",32 µg/mL
same,MIC,"[4]; Mycolicibacterium fortuitum, isolate 32, M. fortuitum group, M. senegalense, read-out: MIC",32 µg/mL
same,MIC,"[4]; Mycolicibacterium fortuitum, isolate 33, M. fortuitum group, M. senegalense, read-out: MIC",< 16 µg/mL
same,MIC,"[4]; Mycolicibacterium fortuitum, isolate 34, M. fortuitum group, M. senegalense, read-out: MIC",32 µg/mL
same,MIC,"[5]; isolate 35, M. immunogenum group, read-out: MIC",> 64 µg/mL
same,MIC,"[5]; isolate 36, M. immunogenum group, read-out: MIC",> 64 µg/mL
same,MIC,"[5]; isolate 37, M. immunogenum group, read-out: MIC",> 64 µg/mL
same,MIC,"[5]; isolate 38, M. immunogenum group, read-out: MIC",> 64 µg/mL
same,MIC,"[6]; isolate 39, M. mucogenicum group, M. mucogenicum, read-out: MIC",≤ 16 µg/mL
same,MIC,"[6]; isolate 40, M. mucogenicum group, M. mucogenicum, read-out: MIC",≤ 16 µg/mL
same,MIC,"[6]; isolate 41, M. mucogenicum group, M. mucogenicum, read-out: MIC",≤ 16 µg/mL
same,MIC,"[6]; isolate 42, M. mucogenicum group, M. mucogenicum, read-out: MIC",≤ 16 µg/mL
same,MIC,"[6]; isolate 43, M. mucogenicum group, M. phocaicum, read-out: MIC",≤ 16 µg/mL
same,MIC,"[6]; isolate 44, M. mucogenicum group, M. phocaicum, read-out: MIC",≤ 16 µg/mL
same,MIC,"[6]; isolate 45, M. mucogenicum group, M. phocaicum, read-out: MIC",≤ 16 µg/mL
same,MIC,"[6]; isolate 46, M. mucogenicum group, M. phocaicum, read-out: MIC",≤ 16 µg/mL
same,MIC,"[6]; isolate 47, M. mucogenicum group, M. phocaicum, read-out: MIC",≤ 16 µg/mL
same,MIC,"[6]; isolate 48, M. mucogenicum group, M. phocaicum, read-out: MIC",≤ 16 µg/mL
same,MIC,"[7]; Mycolicibacterium smegmatis, isolate 49, M. smegmatis group, M. goodii, read-out: MIC",> 64 µg/mL
same,MIC,"[7]; Mycolicibacterium smegmatis, isolate 50, M. smegmatis group, M. wolinskyi, read-out: MIC",64 µg/mL
"C[C@@H](O)[C@H]1C(=O)N2C(C(=O)O)=C(SCCN=CN)C[C@H]12 [IPM, imipenem]",MIC50,[1],8 µg/mL
same,MIC90,[1],16 µg/mL
same,MIC,"[2]; isolate 1, M. abscessus complex, erm gene type MAB30",8 µg/mL
same,MIC,"[2]; isolate 2, M. abscessus complex, erm gene type MAB30",16 µg/mL
same,MIC,"[2]; isolate 3, M. abscessus complex, erm gene type MAB30",8 µg/mL
same,MIC,"[2]; isolate 4, M. abscessus complex, erm gene type massiliense",8 µg/mL
same,MIC,"[2]; isolate 5, M. abscessus complex, erm gene type massiliense/subsp. abs hybrid",16 µg/mL
same,MIC,"[2]; isolate 6, M. abscessus complex, erm gene type Type 1 abscessus",8 µg/mL
same,MIC,"[2]; isolate 7, M. abscessus complex, erm gene type Type 1 abscessus",8 µg/mL
same,MIC,"[2]; isolate 8, M. abscessus complex, erm gene type Type 1 abscessus",8 µg/mL
same,MIC,"[2]; isolate 9, M. abscessus complex, erm gene type Type 1 abscessus",16 µg/mL
same,MIC,"[2]; isolate 10, M. abscessus complex, erm gene type Type 1 abscessus",16 µg/mL
same,MIC,"[2]; isolate 11, M. abscessus complex, erm gene type Type 6 abscessus",8 µg/mL
same,MIC,"[2]; isolate 12, M. abscessus complex, erm gene type Type 6 abscessus",16 µg/mL
same,MIC,"[2]; isolate 13, M. abscessus complex, erm gene type Type 6 abscessus",8 µg/mL
same,MIC,"[2]; isolate 14, M. abscessus complex, erm gene type Type 6 abscessus",8 µg/mL
same,MIC,"[2]; isolate 15, M. abscessus complex, erm gene type Type 7 abscessus",8 µg/mL
same,MIC,"[2]; isolate 16, M. abscessus complex, erm gene type Type 7 abscessus",8 µg/mL
same,MIC,"[2]; isolate 17, M. abscessus complex, erm gene type Type 8 abscessus",8 µg/mL
same,MIC,"[3]; isolate 18, M. chelonae",16 µg/mL
same,MIC,"[3]; isolate 19, M. chelonae",16 µg/mL
same,MIC,"[3]; isolate 20, M. chelonae",16 µg/mL
same,MIC,"[3]; isolate 21, M. chelonae",32 µg/mL
same,MIC,"[3]; isolate 22, M. chelonae",16 µg/mL
same,MIC,"[4]; isolate 23, M. fortuitum group, M. fortuitum",≤2 µg/mL
same,MIC,"[4]; isolate 24, M. fortuitum group, M. fortuitum",4 µg/mL
same,MIC,"[4]; isolate 25, M. fortuitum group, M. fortuitum",≤2 µg/mL
same,MIC,"[4]; isolate 26, M. fortuitum group, M. porcinum",≤2 µg/mL
same,MIC,"[4]; isolate 27, M. fortuitum group, M. porcinum",4 µg/mL
same,MIC,"[4]; isolate 28, M. fortuitum group, M. porcinum/M. boenickei",8 µg/mL
same,MIC,"[4]; isolate 29, M. fortuitum group, M. porcinum/M. boenickei",4 µg/mL
same,MIC,"[4]; isolate 30, M. fortuitum group, M. porcinum/M. boenickei",≤2 µg/mL
same,MIC,"[4]; isolate 31, M. fortuitum group, M. senegalense",≤2 µg/mL
same,MIC,"[4]; isolate 32, M. fortuitum group, M. senegalense",≤2 µg/mL
same,MIC,"[4]; isolate 33, M. fortuitum group, M. senegalense",≤2 µg/mL
same,MIC,"[4]; isolate 34, M. fortuitum group, M. senegalense",≤2 µg/mL
same,MIC,"[5]; isolate 35, M. immunogenum group",16 µg/mL
same,MIC,"[5]; isolate 36, M. immunogenum group",32 µg/mL
same,MIC,"[5]; isolate 37, M. immunogenum group",16 µg/mL
same,MIC,"[5]; isolate 38, M. immunogenum group",32 µg/mL
same,MIC,"[6]; isolate 39, M. mucogenicum group, M. mucogenicum",≤2 µg/mL
same,MIC,"[6]; isolate 40, M. mucogenicum group, M. mucogenicum",≤2 µg/mL
same,MIC,"[6]; isolate 41, M. mucogenicum group, M. mucogenicum",≤2 µg/mL
same,MIC,"[6]; isolate 42, M. mucogenicum group, M. mucogenicum",≤2 µg/mL
same,MIC,"[6]; isolate 43, M. mucogenicum group, M. phocaicum",≤2 µg/mL
same,MIC,"[6]; isolate 44, M. mucogenicum group, M. phocaicum",≤2 µg/mL
same,MIC,"[6]; isolate 45, M. mucogenicum group, M. phocaicum",≤2 µg/mL
same,MIC,"[6]; isolate 46, M. mucogenicum group, M. phocaicum",≤2 µg/mL
same,MIC,"[6]; isolate 47, M. mucogenicum group, M. phocaicum",≤2 µg/mL
same,MIC,"[6]; isolate 48, M. mucogenicum group, M. phocaicum",≤2 µg/mL
same,MIC,"[7]; isolate 49, M. smegmatis group, M. goodii",4 µg/mL
same,MIC,"[7]; isolate 50, M. smegmatis group, M. wolinskyi",4 µg/mL
"CO[C@H]1/C=C/O[C@@]2(C)Oc3c(C)c(O)c4c(c3C2=O)C2=NC3(CCN(CC(C)C)CC3)NC2=C(NC(=O)/C(C)=C\C=C\[C@H](C)[C@H](O)[C@@H](C)[C@@H](O)[C@@H](C)[C@H](OC(C)=O)[C@@H]1C)C4=O [RFB, rifabutin]",MIC,[8],≤ 0.25 µg/mL
same,MIC,"[9]; isolate 13, Other",≤ 0.25 µg/mL
same,MIC,"[9]; isolate 14, Other",> 2 µg/mL
same,MIC,"[9]; isolate 15, Other",> 2 µg/mL
"CO[C@H]1/C=C/O[C@@]2(C)Oc3c(C)c(O)c4c(O)c(c(/C=N/N5CCN(C)CC5)c(O)c4c3C2=O)NC(=O)/C(C)=C\C=C\[C@H](C)[C@H](O)[C@@H](C)[C@@H](O)[C@@H](C)[C@H](OC(C)=O)[C@@H]1C [RIF, rifampin]",MIC,[8],> 2 µg/mL
same,MIC,"[9]; isolate 13, Other",> 2 µg/mL
same,MIC,"[9]; isolate 14, Other",> 2 µg/mL
same,MIC,"[9]; isolate 15, Other",> 2 µg/mL

# From US20250332178A1, “METHODS OF TREATING MYCOBACTERIAL INFECTIONS USING TETRACYCLINE COMPOUNDS” (priority 2018, published 2025)
